Entries after “also recorded” stand apart in the source; their conditions may differ. Marks after values point to notes of the source that are not given here.
Tests used:
[1] = Serum drug concentrations after oral PYD bromide in OSA patients (Example 1, LC-MS); type: in vivo, human
Procedure: (§1) A randomized, double-blind, placebo-controlled, crossover study with PYD was undertaken in 12 patients with moderate to severe OSA. PYD was prepared by grinding pyridostigmine bromide pills manufactured by Sunve Pharmaceutical Co., LTD., Shanghai, China and recapsulated into hard shell capsules. PYD bromide at 30 mg, 60 mg, 120 mg, or placebo was orally administered to patients before sleep each night for a total of four continuous nights. Lights went out within 5 min after the administration. Blood was drawn at 0, 0.5, 1, 1.5, 2, 2.5, 3, 4 and 7 hours after the administration, and serum drug concentrations were determined by a LC-MS method after proper pre-treatment of the blood samples. Patients were monitored by either a PSG or a PM throughout the nights.

[2] = tested on: patients with moderate to severe OSA; experiment: Randomized, double-blind, placebo-controlled, crossover study with PYD in 12 patients with moderate to severe OSA (Example 1; PSG or PM); type: in vivo, human
Procedure: as §1

diagnosed OSA patients = experiment: Double-blind, randomized, cross-over, placebo-controlled study of efficacy and safety of PYD in 6 OSA patients (Example 2; PSG, questionnaires); type: in vivo, human; conditions: for Apnea/Hypopnea Index (AHI): 90 mg PYD bromide oral, mean of 6 patients; for Apnea/Hypopnea Index (AHI) / Apnea index (AI) / Hypopnea Index (HI): events per hour; for Apnea/Hypopnea Index (AHI) Reduction (%) / Hypopnea Index (HI) Reduction (%) / Apnea index (AI) Reduction (%) / Apnea/Hypopnea time Reduction (%) / Low Sat O2 Reduction (%) / Snore score Reduction (%): 90 mg vs placebo; for Apnea/Hypopnea time (%): percentage of total sleep time
Procedure: A double-blind, randomized, cross-over, placebo-controlled study was conducted to evaluate the efficacy and safety of PYD in 6 diagnosed OSA patients. The study consists of a one-day acclimatization period followed immediately by a 2-day double-blind treatment period when patients received either 90 mg PYD bromide in hard shell capsules or a matching placebo before sleep with a light snack. All patients were required to maintain in a supine position throughout of the night, as OSA is most severe when patients is on their back. In such a way, the results are expected to be more conservative in judging therapeutic effects of the drug. Lights were turned off within 5 min after the administration of the drug. The patients were monitored by a PSG. Apnea, hypopnea, snoring, blood O2 saturation were monitored, recorded, and scored. Sleep questionnaires were taken everyday after sleep to evaluate the impact on the sleep satisfaction and at evening to evaluate the quality of life during the daytime. Safety of the drug was also monitored and evaluated.

OSA patient = experiment: Randomized, double-blind, dose escalating study in one OSA patient (Example 3; PSG); type: in vivo, human; conditions: FIG. 9
Procedure: A randomized, double-blind, dose escalating study was carried out in one patient to determine optimum PYD dose range for treating OSA. The patient was administered to with 30, 60, 90 mg PYD bromide or a placebo before sleep, and was monitored by PSG throughout the night. AHI, AI, and total apnea/hypopnea time were lower in the nights administered with 30 or 60 mg PYD bromide compared with the night with 90 mg PYD bromide (FIG. 9). The number of low O2 saturation events was lower with 60 mg PYD bromide compared with that of 90 mg PYD bromide. The results obtained from the clinical study described in Example 2 were reexamined to compare the therapeutic responses in the windows of 2-5 hours and 5-7 hours after sleep. […] Since serum PYD concentrations are expected to be lower within 5-7 hours comparing with those within 2-5 hours, the optimum dose range may be less than 90 mg of PYD bromide in a single dose.

[3] = in vivo; cited from earlier work
[4] = one patient, three treatment nights (30, 60, 120 mg), 2-7 hours after lights off
[5] = 0-2 hr, P value >0.05, listed as Drug
[6] = 0-2 hr, P value >0.05, listed as PYD bromide
[7] = 2-7 hr, P value >0.05, listed as Drug
[8] = 2-7 hr, P value >0.05, listed as PYD bromide

CN(C)C(=O)Oc1ccc[n+](C)c1 [PYD, pyridostigmine]
serum drug concentrations in one patient ([1]; one patient monitored by PSG all four nights, 30, 60, 120 mg oral, FIG. 2): 3 to 45 ng/mL
time of peak serum drug concentration ([1]; oral PYD bromide 30, 60 or 120 mg before sleep, 12 OSA patients, FIG. 1): 3 to 4 h
serious adverse reactions ([2]; 30, 60, 120 mg oral, during the study): No serious adverse reaction was reported
serum drug concentrations at which patients particularly responded positively ([2]; 'particularly between'): 3 to 60 ng/mL
AHI and events of low O2 saturation ([2]; one patient, 0-2 hours after lights off): largely not changed
AHI and low O2 saturation, dose response ([2]; one patient, 30-60 mg compared with 120 mg PYD bromide, FIG. 2): lower AHI and less low O2 saturation
reduction of AHI compared with placebo [2, 4]: 11-23%
reduction of events of low blood O2 saturation compared with placebo [2, 4]: 10-18%
adverse reactions at the highest dose ([2]; patients treated with the highest dose): stomach upset and mild muscle cramp
serum drug concentrations at which patients responded positively ([2]; positive responses: reduction of AHI, AI, apnea/hypopnea time, snoring, increase in minimum oxygen saturation): 2 to 150 ng/mL
Apnea/Hypopnea Index (AHI) (diagnosed OSA patients; 0-2 hr after sleep): 29.6
Apnea/Hypopnea Index (AHI) (diagnosed OSA patients; 2-7 hr after sleep): 20.4
Apnea/Hypopnea Index (AHI) Reduction (%) (diagnosed OSA patients; 0-2 hr after sleep, P value >0.05, listed as Drug): 13.1*** %
Apnea/Hypopnea Index (AHI) Reduction (%) (diagnosed OSA patients; 0-2 hr after sleep, P value >0.05, listed as PYD bromide): No statistically significant reduction
Hypopnea Index (HI) Reduction (%) (diagnosed OSA patients; 0-2 hr, P value >0.05): −17.7*** %
Apnea index (AI) Reduction (%) (diagnosed OSA patients; [5]): 26.7*** %
Apnea/Hypopnea time Reduction (%) (diagnosed OSA patients; [5]): 21.5*** %
Low Sat O2 Reduction (%) (diagnosed OSA patients; [5]): 6.6*** %
Snore score Reduction (%) (diagnosed OSA patients; [5]): 3.3*** %
Apnea index (AI) Reduction (%) (diagnosed OSA patients; [6]): No statistically significant reduction
Apnea/Hypopnea time Reduction (%) (diagnosed OSA patients; [6]): No statistically significant reduction
Low Sat O2 Reduction (%) (diagnosed OSA patients; [6]): No statistically significant reduction
Snore score Reduction (%) (diagnosed OSA patients; [6]): No statistically significant reduction
Apnea/Hypopnea Index (AHI) Reduction (%) (diagnosed OSA patients; 2-7 hr after sleep, P value <0.01 (0.0003), listed as Drug): 28.0* %
Apnea/Hypopnea Index (AHI) Reduction (%) (diagnosed OSA patients; 2-7 hr after sleep, P value <0.01 (0.0003), listed as PYD bromide): 28.0%
Apnea/Hypopnea time Reduction (%) (diagnosed OSA patients; 2-7 hr, 0.01 < P value < 0.05 (0.0133), listed as Drug): 36.4** %
Apnea/Hypopnea time Reduction (%) (diagnosed OSA patients; 2-7 hr, 0.01 < P value < 0.05 (0.0133), listed as PYD bromide): 36.4%
Apnea index (AI) Reduction (%) (diagnosed OSA patients; 2-7 hr, 0.01 < P value < 0.05 (0.0314), listed as Drug): 37.3** %
Apnea index (AI) Reduction (%) (diagnosed OSA patients; 2-7 hr, 0.01 < P value < 0.05 (0.0314), listed as PYD bromide): 37.3%
Snore score Reduction (%) (diagnosed OSA patients; 2-7 hr, P value <0.01 (0.0041), listed as Drug): 18.8* %
Snore score Reduction (%) (diagnosed OSA patients; 2-7 hr, P value <0.01 (0.0041), listed as PYD bromide): 18.8%
Hypopnea Index (HI) Reduction (%) (diagnosed OSA patients; [7]): 10.3*** %
Low Sat O2 Reduction (%) (diagnosed OSA patients; [7]): 12.5*** %
Hypopnea Index (HI) Reduction (%) (diagnosed OSA patients; [8]): 10.3%
Low Sat O2 Reduction (%) (diagnosed OSA patients; [8]): 12.5%
Low Sat O2 (events/hr) (diagnosed OSA patients; 90 mg, 0-2 hr after sleep): 35.1 events/hr
Snore score (events/hr) (diagnosed OSA patients; 90 mg, 0-2 hr after sleep): 528 events/hr
Apnea index (AI) (diagnosed OSA patients; 90 mg, 0-2 hr after sleep): 16.9
Hypopnea Index (HI) (diagnosed OSA patients; 90 mg, 0-2 hr after sleep): 12.0
Apnea/Hypopnea time (%) (diagnosed OSA patients; 90 mg, 0-2 hr): 18.7%
Low Sat O2 (events/hr) (diagnosed OSA patients; 90 mg, 2-7 hr after sleep): 24.9 events/hr
Snore score (events/hr) (diagnosed OSA patients; 90 mg, 2-7 hr after sleep): 485 events/hr
Apnea index (AI) (diagnosed OSA patients; 90 mg, 2-7 hr after sleep): 11.7
Hypopnea Index (HI) (diagnosed OSA patients; 90 mg, 2-7 hr after sleep): 8.7
Apnea/Hypopnea time (%) (diagnosed OSA patients; 90 mg, 2-7 hr): 14.5%
PSG scores (AHI, AI, total apnea/hypopnea time, low O2 saturation events) (diagnosed OSA patients; 90 mg, 5-7 hours compared with 2-5 hours after sleep, FIG. 10): statistically significantly lower
daytime quality of life reported by patients (diagnosed OSA patients; daytime following the drug treatment night): more energy, be more concentrated and be less sleepy
tolerability / serious adverse reactions (diagnosed OSA patients; single dose 90 mg PYD bromide): well tolerated; also recorded: no serious adverse reaction was reported
adverse reactions found (diagnosed OSA patients; single dose 90 mg, one patient): minor stomach upset
longer total sleep time in the treatment night (average) (diagnosed OSA patients; three patients, treatment night vs placebo night, FIG. 8): 33 min
noise of snoring (diagnosed OSA patients; treatment night compared with placebo night): quieter
sleep quality, patients' self evaluation questionnaire (diagnosed OSA patients; treatment night vs placebo night, FIG. 8): better sleep, more clear-headed, more energetic, and more satisfied sleep
number of low O2 saturation events (OSA patient; 60 mg compared with 90 mg PYD bromide): lower
AHI, AI, and total apnea/hypopnea time (OSA patient; nights with 30 or 60 mg compared with the night with 90 mg PYD bromide): lower
elimination half-life [3]: approximately 1.78 hours
